{"source": "ChEMBL document CHEMBL5370604", "about": "“Identification of Micrococcin P2-Derivatives as Antibiotic Candidates against Two Gram-Positive Pathogens” (J Med Chem, 2023)", "key": {"[1]": {"system": "Staphylococcus aureus", "test": "Antibacterial activity against Staphylococcus aureus ATCC 4330 assessed as inhibition of bacterial growth measured after 16 to 24 hrs by CLSI based broth dilution method", "assay_type": "functional", "settings": "time 16-24 hrs"}, "[2]": {"system": "Clostridioides difficile", "test": "Antibacterial activity against Clostridioides difficile ATCC 43255 assessed as inhibition of bacterial growth measured after 24 hrs by CLSI based broth dilution method", "assay_type": "functional"}, "[3]": {"test": "Aqueous kinetic solubility of the compound at pH 7.4 incubated for 2 hrs by UPLC-MS analysis", "assay_type": "physicochemical", "settings": "read-out: Kinetic_solubility"}}, "data": [{"smiles": "C/C=C1\\NC(=O)[C@H]([C@@H](C)O)NC(=O)c2csc(n2)-c2ccc(-c3nc(-c4nc(C(=O)NC5(C(=O)NCCn6c([N+](=O)[O-])cnc6C)CC5)cs4)cs3)nc2-c2csc(n2)[C@H]([C@@H](C)O)NC(=O)c2csc(n2)[C@H](C(C)C)NC(=O)c2csc1n2", "values": [{"measurement": "MIC", "setting": "[1]", "result": 0.5, "unit": "µg/mL"}, {"measurement": "MIC", "setting": "[2]", "result": 0.5, "unit": "µg/mL"}]}, {"smiles": "C/C=C(\\NC(=O)c1csc(-c2csc(-c3ccc4c(n3)-c3csc(n3)[C@H]([C@@H](C)O)NC(=O)c3csc(n3)[C@H](C(C)C)NC(=O)c3csc(n3)/C(=C/C)NC(=O)[C@H]([C@@H](C)O)NC(=O)c3csc-4n3)n2)n1)C(=O)NCCn1ccnc1[N+](=O)[O-]", "values": [{"measurement": "MIC", "setting": "[1]", "result": 1, "unit": "µg/mL"}, {"measurement": "MIC", "setting": "[2]", "result": 0.5, "unit": "µg/mL"}]}, {"smiles": "C/C=C(\\NC(=O)c1csc(-c2csc(-c3ccc4c(n3)-c3csc(n3)[C@H]([C@@H](C)O)NC(=O)c3csc(n3)[C@H](C(C)C)NC(=O)c3csc(n3)/C(=C/C)NC(=O)[C@H]([C@@H](C)O)NC(=O)c3csc-4n3)n2)n1)C(=O)NCCn1cc([N+](=O)[O-])nc1C", "values": [{"measurement": "MIC", "setting": "[1]", "result": 1, "unit": "µg/mL"}, {"measurement": "MIC", "setting": "[2]", "result": 0.25, "unit": "µg/mL"}]}, {"smiles": "C/C=C(\\NC(=O)c1csc(-c2csc(-c3ccc4c(n3)-c3csc(n3)[C@H]([C@@H](C)O)NC(=O)c3csc(n3)[C@H](C(C)C)NC(=O)c3csc(n3)/C(=C/C)NC(=O)[C@H]([C@@H](C)O)NC(=O)c3csc-4n3)n2)n1)C(=O)NCCN1CCOCC1", "values": [{"measurement": "MIC", "setting": "[1]", "result": 1, "unit": "µg/mL"}, {"measurement": "MIC", "setting": "[2]", "result": 1, "unit": "µg/mL"}]}, {"smiles": "C/C=C1\\NC(=O)[C@H]([C@@H](C)O)NC(=O)c2csc(n2)-c2ccc(-c3nc(-c4nc(C(=O)NC5(C(=O)NCCN6C(=O)CNC6=O)CC5)cs4)cs3)nc2-c2csc(n2)[C@H]([C@@H](C)O)NC(=O)c2csc(n2)[C@H](C(C)C)NC(=O)c2csc1n2", "values": [{"measurement": "MIC", "setting": "[1]", "result": 1, "unit": "µg/mL"}, {"measurement": "MIC", "setting": "[2]", "result": "> 16", "unit": "µg/mL"}]}, {"smiles": "C/C=C(\\NC(=O)c1csc(-c2csc(-c3ccc4c(n3)-c3csc(n3)[C@H]([C@@H](C)O)NC(=O)c3csc(n3)[C@H](C(C)C)NC(=O)c3csc(n3)/C(=C/C)NC(=O)[C@H]([C@@H](C)O)NC(=O)c3csc-4n3)n2)n1)C(=O)NCCN1CCN(C(C)C)CC1.Cl", "values": [{"measurement": "solubility kinetic at 2 h", "setting": "[3]", "result": 3, "unit": "µg/mL"}]}, {"smiles": "C/C=C1\\NC(=O)[C@H]([C@@H](C)O)NC(=O)c2csc(n2)-c2ccc(-c3nc(-c4nc(C(=O)NC5(C(=O)NCCCN6CCOCC6)CC5)cs4)cs3)nc2-c2csc(n2)[C@H]([C@@H](C)O)NC(=O)c2csc(n2)[C@H](C(C)C)NC(=O)c2csc1n2", "values": [{"measurement": "MIC", "setting": "[1]", "result": 1, "unit": "µg/mL"}, {"measurement": "MIC", "setting": "[2]", "result": 1, "unit": "µg/mL"}]}, {"smiles": "C/C=C1\\NC(=O)[C@H]([C@@H](C)O)NC(=O)c2csc(n2)-c2ccc(-c3nc(-c4nc(C(=O)NC5(C(=O)NCCCN6CCN(C(C)C)CC6)CC5)cs4)cs3)nc2-c2csc(n2)[C@H]([C@@H](C)O)NC(=O)c2csc(n2)[C@H](C(C)C)NC(=O)c2csc1n2.Cl", "values": [{"measurement": "solubility kinetic at 2 h", "setting": "[3]", "result": 2.8, "unit": "µg/mL"}]}, {"smiles": "C/C=C1\\NC(=O)[C@H]([C@@H](C)O)NC(=O)c2csc(n2)-c2ccc(-c3nc(-c4nc(C(=O)NC5(C(=O)NCCn6ccnc6[N+](=O)[O-])CC5)cs4)cs3)nc2-c2csc(n2)[C@H]([C@@H](C)O)NC(=O)c2csc(n2)[C@H](C(C)C)NC(=O)c2csc1n2", "values": [{"measurement": "MIC", "setting": "[1]", "result": 1, "unit": "µg/mL"}, {"measurement": "MIC", "setting": "[2]", "result": 0.5, "unit": "µg/mL"}]}, {"smiles": "C/C=C1\\NC(=O)[C@H]([C@@H](C)O)NC(=O)c2csc(n2)-c2ccc(-c3nc(-c4nc(C(=O)NC5(C(=O)NCCn6cc([N+](=O)[O-])nc6C)CC5)cs4)cs3)nc2-c2csc(n2)[C@H]([C@@H](C)O)NC(=O)c2csc(n2)[C@H](C(C)C)NC(=O)c2csc1n2", "values": [{"measurement": "MIC", "setting": "[1]", "result": 1, "unit": "µg/mL"}, {"measurement": "MIC", "setting": "[2]", "result": 0.5, "unit": "µg/mL"}]}, {"smiles": "C/C=C1\\NC(=O)[C@H]([C@@H](C)O)NC(=O)c2csc(n2)-c2ccc(-c3nc(-c4nc(C(=O)NC5(C(=O)NCCN6CCOCC6)CC5)cs4)cs3)nc2-c2csc(n2)[C@H]([C@@H](C)O)NC(=O)c2csc(n2)[C@H](C(C)C)NC(=O)c2csc1n2", "values": [{"measurement": "MIC", "setting": "[1]", "result": 1, "unit": "µg/mL"}, {"measurement": "MIC", "setting": "[2]", "result": 2, "unit": "µg/mL"}]}, {"smiles": "C/C=C(\\NC(=O)c1csc(-c2csc(-c3ccc4c(n3)-c3csc(n3)[C@H]([C@@H](C)O)NC(=O)c3csc(n3)[C@H](C(C)C)NC(=O)c3csc(n3)/C(=C/C)NC(=O)[C@H]([C@@H](C)O)NC(=O)c3csc-4n3)n2)n1)C(=O)NCCCN1CCOCC1", "values": [{"measurement": "MIC", "setting": "[1]", "result": 1, "unit": "µg/mL"}, {"measurement": "MIC", "setting": "[2]", "result": 0.5, "unit": "µg/mL"}]}]}
